In patent US20210275447A1, “SUSTAINED-RELEASE OPHTHALMIC PHARMACEUTICAL COMPOSITIONS AND USES THEREOF” (TAIWAN LIPOSOME CO., LTD., priority 2018, published 2021):
Where a name gives a salt, the structure may show the parent alone.

Legend:
[1] = Drug loading of liposomes by remote loading: drug to lipid molar ratio and encapsulation efficiency; format: physicochemical; conditions: 300 mM AS, 2 mg/mL drug
Method: The dry lipid was hydrated in a trapping agent, 300 mM ammonium sulfate (AS), for 30 min at the temperature above the transition temperature to form the MLVs. […] After extrusion, unencapsulated trapping agent was removed by dialysis method or diafiltration method against 9.4% sucrose solution or 0.9% NaCl to create a polyatomic ion gradient between the inner aqueous phase and the outer aqueous phase of the empty liposomes.
A reaction mixture containing 10.0 mg/mL of sunitinib (LC Laboratories, USA), empty liposomes (with 20.0 mM of lipids prepared according to Example 1), and 40 mM histidine buffer (pH 7) was incubated at 40° C. for 15 min The unencapsulated sunitinib of the reaction mixture was removed by a Sephadex™ G-50 Fine gel (GE Healthcare, USA) or dialysis bag (Spectrum Labs, USA) against a 9.4% sucrose solution to obtain a liposomal sunitinib formulation. The encapsulated sunitinib concentration and the lipid concentration of the liposomal sunitinib formulation were measured using an ultraviolet/visible (UV/Vis) spectrophotometer to calculate the drug to lipid molar ratio (D/L) of the liposomal sunitinib formulation.
The encapsulation efficiency was calculated by comparing the drug to lipid molar ratio (D/L) of the liposomal sunitinib formulation to the nominal D/L of the reaction mixture, which is dividing the initial added concentration of sunitinib by the initial added concentration of lipid of empty liposome.
An initial loading concentration of 4.0 mg/mL of sunitinib or sunitinib malate was mixed with the empty liposomes according to the procedures of Example 2.

[2] = In vitro release through dialysis bag in rabbit vitreous humor; format: in vitro ADME; conditions: PBS pH 7.4, 37° C., released immediately, FIG. 1
Method: Each dialysis bag contained 950 μL of rabbit vitreous humor (Pel-Freez Biologicals, USA) and both ends of the dialysis bags were then sealed. Each dialysis bag was immersed in 25 mL of PBS at pH 7.4 in a 50-mL centrifuge tube and incubated in a water bath at 37±1° C. for 24 hours. At designated time points after incubation (1, 2, 4, 6, 24, 48, 122, 146 and 168 hours), 0.5 mL aliquot from the 25 mL PBS inside each centrifuge tube was sampled and 0.5 mL of fresh PBS was added to replenish the sampled aliquot. Drug concentrations of the sampled aliquots at each time point were analyzed using high performance liquid chromatography (HPLC) to create the in vitro release profile of the liposomal composition.

[3] = liposomes DOPC/cholesterol (66.7/33.3)
[4] = liposomes POPC/cholesterol (66.7/33.3)

Row | EE (%), encapsulation efficiency [1, 3] [%] | Purified D/PL (mole/mole) [1, 3] [mole/mole] | EE (%), encapsulation efficiency [1, 4] [%] | Purified D/PL (mole/mole) [1, 4] [mole/mole] | time after which release reached a plateau [2] [h] | SMILES
1 | 91.3 | 1.24 | 66.6 | 0.90 | – | Cc1ccc(NC(=O)c2ccc(CN3CCN(C)CC3)cc2)cc1Nc1nccc(-c2cccnc2)n1 [Imatinib, imatinib mesylate]
2 | – | – | – | – | 6 | CCN(CC)CCNC(=O)c1c(C)[nH]c(/C=C2\C(=O)Nc3ccc(F)cc32)c1C [free sunitinib, sunitinib]
